Measured values as given in BindingDB's records for doi:10.1016/s0960-894x(00)00194-3 (The Oxford Centre For Molecular Sciences, 2000).
pKi: −log10 of the molar value. Where a SMILES comes first, the peptide text is derived from it.

assay: Peptide was tested for inhibition constant for competitive inhibition using Suc-AAPA-pNa and Pancreatic elastase

| SMILES | pKi |
| --- | --- |
| CC[C@H](C)[C@H](NC(=O)[C@H](C)NC(=O)[C@H](CCC(=O)O)NC(=O)[C@H](CC(C)C)NC(=O)[C@H](Cc1ccccc1)NC(=O)[C@@H](N)CCSC)C(=O)N1CCC[C@H]1C(=O)N[C@@H](CCSC)C(=O)N[C@@H](CO)C(=O)O | 2.24 |
| CC[C@H](C)[C@H](NC(=O)[C@H](CO)NC(=O)[C@H](CCSC)NC(=O)[C@@H]1CCCN1C(=O)[C@@H](NC(=O)[C@H](C)NC(=O)[C@H](CCC(=O)O)NC(=O)[C@H](CC(C)C)NC(=O)[C@H](Cc1ccccc1)NC(=O)[C@@H](N)CCSC)[C@@H](C)CC)C(=O)O | 4.00 |
| CSCC[C@H](N)C(=O)N[C@@H](Cc1ccccc1)C(=O)N[C@@H](CC(C)C)C(=O)N[C@@H](C)C(=O)O [(S)-2-{(S)-2-[(S)-2-((S)-2-Amino-4-methylsulfanyl-butyrylamino)-3-phenyl-propionylamino]-4-methyl-pentanoylamino}-propionic acid] (H-MFLA-OH) | 2.96 |
